Legend:
TRPM8 = molecular target: T1, TRPM8 (Homo sapiens, UniProt Q7Z2W7); experiment: Manual patch clamp detection on TRPM8 channel; type: cell-based; conditions: 20.00 μM, positive compound
T1 construct: expressed in transfected cells
Procedure: (§1) TRPM8 cells were cultured in a cell culture dish with a diameter of 35 mm, placed in an incubator in 5% CO2 at 37° C., and passaged at a ratio of 1:5 every 48 hours. The formula of medium was 90% DMEM (Invitrogen), 10% fetal bovine serum (Gibco), 2 mM L-glutamine, 50 μg/mL Hygromycin B (Invitrogen) and 5 μg/mL Blasticidine HCl (Invitrogen). Before electrophysiological patch clamp experiment, the cell culture medium was replaced with medium containing 1 μg/mL doxycycline for at least 16 hours to induce TRPM8 expression.
(§2) On the day of the experiment, the cell culture medium was aspirated, the cell were rinsed once with extracellular fluid, and then 0.25% Trypsin-EDTA (Invitrogen) solution was added, and digested at room temperature for 1-2 minutes. The digestion solution was aspirated, the cell were resuspended with extracellular fluid, and transferred to the experimental dish for electrophysiological recording for further experiment.
Preparation of menthol: 100.00 mM of DMSO stock solution of menthol was added to the extracellular solution, diluting 1000-fold to 100.00 μM of menthol solution.
Preparation of AMTB: 5 μL of DMSO stock solution (20.00 mM) of AMTB was added to 4995 μL of menthol solution (100.00 uM), diluting 1000-fold to obtain the final concentration of 20.00 μM AMTB to be tested.
Preparation of IC-1: 20.00 mM or 10.00 mM of stock solution of IC-1 was taken and added to the agonist solution of the corresponding channel, diluting 1000 or 2000-fold to the final concentration of 10.00 μM of […] solution to be tested.
(§3) HEK293 cells stably expressing TRP channels, the corresponding agonist-induced channel current was recorded by whole-cell patch clamp technique at room temperature. […] Clamp voltages and data recording were controlled and recorded by a computer using pClamp 11 software with the sampling frequency of 10 kHz and the filtering frequency of 2 kHz. […] After the current was evoked for more than 40 s and no attenuation was determined, the dosing process started. […]

SD rats = experiment: SNL model in rats, mechanical hyperalgesia test; type: in vivo; conditions: 100 mg/kg by gavage, 1 hour after administration
Procedure: Male SPF grade SD rats, weighed 150-180 g, were selected. Aseptic operation during surgery was performed. The animals were anesthetized with sodium pentobarbital (50 mg/kg, intraperitoneal injection). The surgical area of animal waist was shaved and the skin was disinfected three times with iodophor and 70% ethanol. After the skin was dried, the operation was started. Surgical knife was used to make a longitudinal incision at the back of the sacrum of the animal waist to expose the left paraspinal muscles, and distractor was used to separate muscle tissue to expose the spine. The left spinal nerves L5 and L6 were separated and ligated with a 6-0 silk thread, and the wound was sutured. […]
The animals were weighed to calculate the dosage. […] During the test, rapid paw withdrawal of animal was recorded as pain response. When the test fiber was removed from animal skin, the paw withdrawal of animal was also recorded as pain response. If animal moved or walked, the pain response was not recorded and the test was repeated. […]
Mechanical hyperalgesia was expressed as paw withdrawal threshold (PWT) in rat behavioral test, which was calculated with the following formula: 50% response threshold (g)=(10^(Xf+k))/10,000; • Xf=the final test fiber value used in the test; • k=table value; • =mean difference

TRPA1 = molecular target: T2, TRPA1 (Mus musculus, UniProt Q8BLA8); experiment: IonWorks Barracuda (IWB) automated patch clamp detection of TRPA1 inhibitory activity; type: cell-based; conditions: HEK293 cells stably expressing TRPA1, AITC-induced current
T2 construct: expressed in transfected cells
T2 sequence (Q8BLA8 whole entry): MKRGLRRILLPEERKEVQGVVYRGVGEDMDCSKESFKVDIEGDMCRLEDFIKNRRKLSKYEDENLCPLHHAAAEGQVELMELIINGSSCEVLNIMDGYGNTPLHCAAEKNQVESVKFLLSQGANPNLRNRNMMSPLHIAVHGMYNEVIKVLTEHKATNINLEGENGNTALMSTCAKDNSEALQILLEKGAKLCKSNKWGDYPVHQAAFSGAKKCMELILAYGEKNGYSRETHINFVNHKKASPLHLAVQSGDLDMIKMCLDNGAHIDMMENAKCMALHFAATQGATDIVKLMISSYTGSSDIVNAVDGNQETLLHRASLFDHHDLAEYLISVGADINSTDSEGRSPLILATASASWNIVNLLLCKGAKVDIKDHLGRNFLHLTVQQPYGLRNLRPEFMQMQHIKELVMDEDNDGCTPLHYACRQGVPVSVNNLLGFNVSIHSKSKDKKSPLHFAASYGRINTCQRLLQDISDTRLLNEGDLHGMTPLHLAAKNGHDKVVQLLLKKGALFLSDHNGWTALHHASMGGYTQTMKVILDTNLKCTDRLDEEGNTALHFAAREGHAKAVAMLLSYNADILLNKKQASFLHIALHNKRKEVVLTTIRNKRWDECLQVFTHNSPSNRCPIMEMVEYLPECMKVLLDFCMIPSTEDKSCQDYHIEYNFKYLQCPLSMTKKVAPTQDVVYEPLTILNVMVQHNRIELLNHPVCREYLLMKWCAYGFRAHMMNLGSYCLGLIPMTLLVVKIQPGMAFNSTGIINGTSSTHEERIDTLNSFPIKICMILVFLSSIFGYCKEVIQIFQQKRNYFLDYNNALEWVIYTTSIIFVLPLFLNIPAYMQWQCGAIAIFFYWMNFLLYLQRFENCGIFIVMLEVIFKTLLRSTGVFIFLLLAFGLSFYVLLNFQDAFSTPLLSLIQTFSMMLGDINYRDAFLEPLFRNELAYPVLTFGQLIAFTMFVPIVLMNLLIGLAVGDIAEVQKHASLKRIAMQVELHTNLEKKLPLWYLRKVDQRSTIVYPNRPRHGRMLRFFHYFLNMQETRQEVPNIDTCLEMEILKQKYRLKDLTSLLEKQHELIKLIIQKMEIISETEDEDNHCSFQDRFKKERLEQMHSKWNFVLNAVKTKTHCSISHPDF
Procedure: IonWorks Barracuda (IWB) automated patch clamp detection was used as test method: HEK293 cells stably expressing TRPA1 were placed in the T175 culture flask with DMEM medium containing 15 μg/mL Blasticidin S HCl, 200 μg/mL Hygromycin B and 10% FBS, and cultured in an incubator in 5% CO2 at 37° C. When the cell density reached about 80%, the culture medium was removed, the residue was rinsed once with phosphate buffered saline (PBS) without calcium and magnesium. 3 mL of Trypsin was added to digest for 2 min, 7 mL of culture medium was added to terminate the digestion. The cells were collected to 15 mL centrifuge tube and centrifuged at 800 rpm for 3 min. After the supernatant was removed, the cells were added to appropriate volume of extracellular fluid for re-suspending, and the cell density was controlled at 2-3×10^6/mL for IWB experiment. The formulation of extracellular fluid (in mM) was 140 NaCl, 5 KCl, 1 MgCl2, 10 HEPES, 0.5 EGTA, 10 Glucose (pH 7.4); the formulation of intracellular fluid (in mM) was 140 CsCl, 10 HEPES, 5 EGTA, 0.1 CaCl2), 1 MgCl2 (pH 7.2). 28 mg/mL of amphotericin B was freshly prepared with DMSO on the day of experiment, and then final concentration of 0.1 mg/mL of that was prepared with intracellular fluid.
Population patch clamp (PPC) plate was used in IWB experiment. The entire detection process was automatically carried out by the instrument. […]
The record of data and the export of current amplitude measurement were carried out by IWB software (version 2.5.3, Molecular Devices Corporation. Union City, CA). No statistics was recorded for wells with sealing impedance lower than 20 MΩ. […] TRPA1 current amplitude was measured at ±100 mV. […] The dose-effect curve of compounds and IC50 were fitted and calculated by GraphPad Prism 5.02 (GraphPad Software, San Diego, CA).

ICR mice = experiment: acetic acid writhing pain model in mice; type: in vivo; conditions: 10 mg/kg intragastric, acetic acid 1 h after administration
Procedure: Male ICR mice, weighed 22-25 g, were fasted but allowed to drink water freely for 2 h before administration. All ICR mice were weighed and grouped randomly, and the number of animals in each group was greater than 10. […] […] The drug was administrated intragastrically based on the weight of mice. 1.5% acetic acid solution (0.1 ml/10 g) was injected intraperitoneally 1 hour after administration, and the frequency of visceral pain in each group of mice within 30 min was observed. When concave abdomen, stretched trunk and hind paw, and high buttocks appeared, one number point was recorded. Finally, the number of appearance of the above phenomenon was counted within 30 minutes.

TRPV4 = molecular target: T3, TRPV4 (Homo sapiens, UniProt Q9HBA0); experiment: Manual patch clamp detection on TRPV4 channel; type: cell-based; conditions: 40.00 μM, positive compound
T3 construct: expressed in transfected cells
T3 sequence (Q9HBA0 whole entry, species assumed): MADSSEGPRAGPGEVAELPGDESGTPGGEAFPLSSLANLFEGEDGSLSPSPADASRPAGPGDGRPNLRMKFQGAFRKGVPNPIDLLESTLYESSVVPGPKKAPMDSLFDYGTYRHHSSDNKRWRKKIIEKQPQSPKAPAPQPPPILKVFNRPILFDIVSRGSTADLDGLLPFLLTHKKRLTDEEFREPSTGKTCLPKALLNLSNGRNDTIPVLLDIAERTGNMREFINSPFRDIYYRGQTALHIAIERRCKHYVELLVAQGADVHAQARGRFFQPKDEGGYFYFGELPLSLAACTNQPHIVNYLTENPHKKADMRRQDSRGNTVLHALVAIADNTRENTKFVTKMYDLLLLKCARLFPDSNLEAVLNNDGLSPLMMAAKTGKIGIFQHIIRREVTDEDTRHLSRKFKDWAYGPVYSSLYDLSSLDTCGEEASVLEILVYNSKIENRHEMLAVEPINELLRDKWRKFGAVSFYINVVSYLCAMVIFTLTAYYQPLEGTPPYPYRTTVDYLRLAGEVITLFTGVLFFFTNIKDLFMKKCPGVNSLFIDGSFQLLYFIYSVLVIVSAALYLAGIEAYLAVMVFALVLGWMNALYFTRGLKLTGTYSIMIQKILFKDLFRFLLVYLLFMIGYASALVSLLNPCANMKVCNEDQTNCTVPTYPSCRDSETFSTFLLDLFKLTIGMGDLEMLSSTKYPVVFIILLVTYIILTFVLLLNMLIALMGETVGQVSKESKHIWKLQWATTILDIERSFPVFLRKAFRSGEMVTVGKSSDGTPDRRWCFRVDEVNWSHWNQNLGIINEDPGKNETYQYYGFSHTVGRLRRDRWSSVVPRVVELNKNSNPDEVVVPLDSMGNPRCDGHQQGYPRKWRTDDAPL
Procedure: as §1, with “TRPV4” for “TRPM8”, “the expression of TRPV4.” for “TRPM8 expression.”
as §2, with “experiment. […]” for “experiment.”
as §3

C57 mice = experiment: hot plate pain model in mice; type: in vivo; conditions: 10 mg/kg intraperitoneal, hot plate 55° C.
Procedure: SPF-grade C57 male mice were placed at hot plate with constant 55±0.1° C. […] If the pain reaction of mice was observed, the mice were taken out immediately to prevent mice from scalding. […] Appropriate amount of test compounds were added into required volume of physiological saline and fully suspended, and the concentration of the drug compound was prepared as 1 mg/ml. The standard volume of administration to mice was 10 ml/kg (or 0.1 ml/10 g). The administration mode was intraperitoneal administration. […] The administration volume was 10 ml/kg. […] Hot plate observation indicator is the time latency of mice on the hot plate at 55±0.1° C. Measurement and recording were conducted at 3 h before administration and 15 min, 30 min, and 60 min after administration. Maximum possible effect (MPE) % was used to evaluate analgesic effect of each compound, i.e., MPE %=[(Post drug latency-baseline latency)/(30-baseline latency)]×100. MPE % at different time points was recorded. The higher the value of MPE % was, the stronger the analgesic effect of the compound was.

TRPV1 = molecular target: T4, TRPV1 (Homo sapiens, UniProt Q8NER1); experiment: Manual patch clamp detection on TRPV1 channel; type: cell-based; conditions: HEK293, Capsaicin-induced current
T4 construct: expressed in transfected cells
T4 sequence (Q8NER1 whole entry, species assumed): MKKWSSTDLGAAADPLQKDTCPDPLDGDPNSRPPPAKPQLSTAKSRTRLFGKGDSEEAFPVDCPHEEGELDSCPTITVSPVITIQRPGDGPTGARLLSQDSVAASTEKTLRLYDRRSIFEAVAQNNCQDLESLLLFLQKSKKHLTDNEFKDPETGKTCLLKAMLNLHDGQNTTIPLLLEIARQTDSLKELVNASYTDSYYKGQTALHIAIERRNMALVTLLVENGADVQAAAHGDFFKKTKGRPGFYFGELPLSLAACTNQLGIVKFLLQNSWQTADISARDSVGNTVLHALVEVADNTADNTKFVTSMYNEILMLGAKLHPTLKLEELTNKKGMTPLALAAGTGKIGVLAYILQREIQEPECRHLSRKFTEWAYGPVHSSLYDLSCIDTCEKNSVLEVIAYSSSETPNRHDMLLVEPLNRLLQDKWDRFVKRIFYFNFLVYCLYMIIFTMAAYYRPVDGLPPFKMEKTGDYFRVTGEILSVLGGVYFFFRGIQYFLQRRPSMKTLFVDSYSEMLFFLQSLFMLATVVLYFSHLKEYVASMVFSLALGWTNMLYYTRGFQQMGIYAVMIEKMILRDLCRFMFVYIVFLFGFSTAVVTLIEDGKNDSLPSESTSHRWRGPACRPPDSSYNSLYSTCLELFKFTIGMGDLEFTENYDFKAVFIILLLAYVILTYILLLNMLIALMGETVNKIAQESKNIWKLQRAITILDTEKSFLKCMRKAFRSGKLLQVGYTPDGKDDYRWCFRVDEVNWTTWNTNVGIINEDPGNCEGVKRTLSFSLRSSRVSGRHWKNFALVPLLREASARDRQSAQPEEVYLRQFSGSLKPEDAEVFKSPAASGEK
Procedure: TRPV1 cells were cultured in a cell culture dish with a diameter of 35 mm, placed in a 37° C., 5% CO2 incubator, and passaged at a ratio of 1:5 every 48 hours. Medium formula: 90% DMEM (Invitrogen), 10% Fetal bovine serum (Gibco). 2 mM L-glutamine, 50 μg/mL Hygromycin B (Invitrogen) and 5 μg/mL Blasticidine HCl (Invitrogen). Before electrophysiological patch clamp experiments, the cell culture medium was replaced with medium containing 1 μg/mL Doxycycline for at least 16 hours to induce the expression of TRPV1.
as §2, with “experiment. […]” for “experiment.”
as §3

T1 sequence (Q7Z2W7 whole entry, species assumed): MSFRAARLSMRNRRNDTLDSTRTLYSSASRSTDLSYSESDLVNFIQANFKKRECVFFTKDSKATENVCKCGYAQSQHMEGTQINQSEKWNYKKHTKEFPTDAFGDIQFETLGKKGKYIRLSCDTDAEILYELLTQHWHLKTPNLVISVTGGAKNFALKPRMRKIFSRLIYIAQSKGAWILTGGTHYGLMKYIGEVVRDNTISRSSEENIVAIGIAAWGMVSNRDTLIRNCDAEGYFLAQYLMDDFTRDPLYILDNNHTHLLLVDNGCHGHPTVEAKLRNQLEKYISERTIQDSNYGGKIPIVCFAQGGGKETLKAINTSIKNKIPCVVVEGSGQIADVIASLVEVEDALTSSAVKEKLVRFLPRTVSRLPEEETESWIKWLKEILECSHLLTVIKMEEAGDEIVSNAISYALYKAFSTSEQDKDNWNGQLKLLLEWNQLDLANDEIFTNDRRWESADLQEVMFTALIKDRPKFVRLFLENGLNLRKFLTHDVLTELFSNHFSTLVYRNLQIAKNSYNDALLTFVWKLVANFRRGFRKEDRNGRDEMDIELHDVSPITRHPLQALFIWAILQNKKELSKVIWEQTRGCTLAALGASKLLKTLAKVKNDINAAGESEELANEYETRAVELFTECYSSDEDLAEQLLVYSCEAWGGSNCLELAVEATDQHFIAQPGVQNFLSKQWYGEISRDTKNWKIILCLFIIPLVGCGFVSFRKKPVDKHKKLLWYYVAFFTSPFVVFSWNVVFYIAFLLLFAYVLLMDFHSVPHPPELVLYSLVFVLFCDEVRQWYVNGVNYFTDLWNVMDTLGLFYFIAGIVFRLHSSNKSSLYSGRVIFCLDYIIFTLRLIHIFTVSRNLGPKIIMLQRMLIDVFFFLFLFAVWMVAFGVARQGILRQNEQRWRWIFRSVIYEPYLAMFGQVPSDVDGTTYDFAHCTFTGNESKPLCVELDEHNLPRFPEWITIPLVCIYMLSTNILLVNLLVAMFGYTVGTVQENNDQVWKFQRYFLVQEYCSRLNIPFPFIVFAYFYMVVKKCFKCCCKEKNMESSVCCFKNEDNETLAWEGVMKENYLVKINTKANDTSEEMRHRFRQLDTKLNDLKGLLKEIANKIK

Cc1cccc(COc2ccccc2C(=O)N(CCCN)Cc2cccs2)c1 [AMTB, reference compound]
Inhibition % of TRPM8 current (TRPM8): over 90%

NCC1(CC(=O)O)CCCCC1 [Gabapentin, reference compound]
PWT (SD rats): 6.352 ± 1.897 g

CNCC[C@H](Oc1cccc2c1CCC2)c1ccccc1 [Compound C1]
IC50 (TRPA1): 20 to 50 µM

CN1[C@H]2C[C@H](OC(=O)[C@H](CO)c3ccccc3)C[C@@H]1[C@@H](O)C2 [anisodamine, reference compound]
frequency of writhing response within 30 min (ICR mice): 27 times

N.N.N.N.N.N.N.N.N.N.N.N.N.N.[Cl-].[Cl-].[Cl-].[Cl-].[Cl-].[Cl-].[O-2].[O-2].[Ru+3].[Ru+3].[Ru+4] [RR, Ruthenium Red, reference compound]
Inhibition % of TRPV4 current (TRPV4): over 90%

NCC[C@H](Oc1cccc2ccoc12)c1cccs1 [IC-23, (S)-3-(benzofuran-7-yloxy)-3-(thiophen-2-yl)propan-1-amine]
analgesic activity compared with the positive controls gabapentin and duloxetine (C57 mice): significantly stronger than that of 100 mg/kg of gabapentin
analgesic effect (MPE %) compared with the saline control group (C57 mice; within 60 min): very potent analgesic effect

Oc1cc2c(cc1O)CN(C(=S)NCCc1ccc(Cl)cc1)CCC2 [Capsazepine, reference compound]
inhibition at 10 µM (TRPV1): > 90%
